In ChEMBL document CHEMBL1201862, “PubChem BioAssay data set” (2004):
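Grown in 96-well plates, cells were treated for 48 hours with each compound at five concentrations. Insufficient inhibition: endpoint recorded as highest concentration tested. GI50 is the concentration that inhibits growth by half.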 Calls of active or inactive are those of the source. Rule as the data show it: active = GI50 up to about 1.1 µM and inactive = higher.

How the values were obtained:
Test in all cases: growth of human tumour cells (NCI), 48 h
[1] = tested on: 786-0
[2] = tested on: CAKI-1
[3] = tested on: DU-145
[4] = tested on: HCC 2998
[5] = tested on: HCT-116
[6] = tested on: MDA-MB-231
[7] = tested on: MOLT-4
[8] = tested on: Malme-3M
[9] = tested on: NCI-H522
[10] = tested on: NCI/ADR-RES
[11] = tested on: OVCAR-4
[12] = tested on: OVCAR-5
[13] = tested on: PC-3
[14] = tested on: RPMI-8226
[15] = tested on: RXF 393
[16] = tested on: SF-539
[17] = tested on: UACC-62
[18] = tested on: SF-295

Measured: GI50

Nc1n[nH]c2c(C(=O)Nc3ccc(Cl)cc3)c(N)n(N)c(=O)c12
inactive: [1] > 100 µM | [2] > 100 µM | [3] > 100 µM | [4] > 100 µM | [5] > 100 µM | [6] > 100 µM | [7] > 100 µM | [8] > 100 µM | [9] > 100 µM | [10] > 100 µM | [11] > 100 µM | [12] > 100 µM | [13] > 100 µM | [14] > 100 µM | [15] > 100 µM | [16] > 100 µM | [17] > 100 µM

Cc1ccc2c(c1)CC1(Cc3c(C)cccc3C1=O)C2=O (stereo unspecified)
inactive: [1] > 100 µM | [3] > 100 µM | [4] > 100 µM | [5] > 100 µM | [6] > 100 µM | [7] > 100 µM | [8] > 100 µM | [9] > 100 µM | [10] > 100 µM | [11] > 100 µM | [12] > 100 µM | [13] > 100 µM | [14] > 100 µM | [15] > 100 µM | [18] 69.8 µM | [16] > 100 µM | [17] 44.7 µM

COC(=O)c1c(O)ccc2c1C1(Cc3ccccc3C1=O)C(O)O2 (stereo unspecified)
inactive: [1] 14.1 µM | [2] 16.1 µM | [3] 24.4 µM | [4] 31.2 µM | [5] 15.6 µM | [6] 17.3 µM | [7] 5.04 µM | [8] 21.7 µM | [9] 3.86 µM | [10] 27.8 µM | [11] 16.2 µM | [12] 17.5 µM | [13] 17.2 µM | [14] 2.88 µM | [15] 51.5 µM | [18] 42.3 µM | [16] 20.1 µM

BC(=O)NC(CC(C)C)C(=O)NC1c2ccsc2C(=O)C1O.CN(C)C (stereo unspecified)
inactive: [1] > 100 µM | [3] > 100 µM | [4] > 100 µM | [5] > 100 µM | [6] > 100 µM | [7] > 100 µM | [8] > 100 µM | [9] > 100 µM | [10] > 100 µM | [11] > 100 µM | [12] > 100 µM | [13] > 100 µM | [14] > 100 µM | [15] > 100 µM | [18] > 100 µM | [16] > 100 µM | [17] > 100 µM

CC1(C)CC(C#Cc2ccccc2)CC(C)(C)N1O
inactive: [1] 22.2 µM | [2] 20.6 µM | [3] 16.1 µM | [4] 16.3 µM | [5] 20 µM | [6] 15.2 µM | [7] 46 µM | [8] 16.8 µM | [10] 23.9 µM | [11] 43.4 µM | [12] 22.1 µM | [13] 11.6 µM | [14] 5.18 µM | [15] 19.5 µM | [18] 15.6 µM | [16] 20.6 µM | [17] 17.2 µM

CC(C)(C)OC(=O)NCC(c1c[nH]c2ccc(Br)cc12)c1c[nH]c2ccc(Br)cc12
inactive: [1] 3.85 µM | [2] 11 µM | [3] 11.7 µM | [4] 5.18 µM | [5] 4.14 µM | [6] 10.5 µM | [8] 18.3 µM | [9] 10.7 µM | [10] 6.82 µM | [11] 7.36 µM | [12] 7.48 µM | [13] 3.55 µM | [14] > 100 µM | [15] 11.6 µM | [18] 9.89 µM | [16] 14.4 µM | [17] 11.1 µM

COP(=O)(CC(=O)C1OC(OCc2ccccc2)C(OCc2ccccc2)C(OCc2ccccc2)C1OCc1ccccc1)OC (stereo unspecified)
inactive: [1] 12.5 µM | [2] 4.7 µM | [3] 22 µM | [4] 3.32 µM | [5] 5.11 µM | [6] 10.2 µM | [7] 2.69 µM | [8] 9.1 µM | [9] 9.51 µM | [10] 4.16 µM | [11] 2.19 µM | [12] 17.6 µM | [13] 5.01 µM | [15] 2.62 µM | [18] 5.36 µM | [16] 12.8 µM | [17] 4.12 µM

c1csc(-c2cc(-c3cccs3)c(-c3cccs3)s2)c1
inactive: [1] > 100 µM | [2] > 100 µM | [3] > 100 µM | [4] 58.5 µM | [5] 40.9 µM | [6] 56.1 µM | [7] 36.1 µM | [8] 62.2 µM | [9] 69.3 µM | [10] > 100 µM | [11] > 100 µM | [12] > 100 µM | [13] > 100 µM | [15] 61.5 µM | [18] > 100 µM | [16] > 100 µM | [17] 54.2 µM

COc1ccc(CCN2C(=O)C(=O)C(C(=O)c3ccccc3)C2c2ccccc2)cc1OC (stereo unspecified)
inactive: [1] > 100 µM | [2] > 100 µM | [3] > 100 µM | [4] > 100 µM | [5] > 100 µM | [6] > 100 µM | [7] > 100 µM | [8] > 100 µM | [9] > 100 µM | [10] 58.6 µM | [12] > 100 µM | [13] > 100 µM | [14] 51.2 µM | [15] > 100 µM | [18] 44.2 µM | [16] > 100 µM | [17] > 100 µM

[N-]=[N+]=C1N=CN=C1c1nc[nH]n1
inactive: [1] 21.9 µM | [2] 6.31 µM | [3] 48.5 µM | [4] 63 µM | [5] 25 µM | [6] 29 µM | [7] 6.27 µM | [8] 10.9 µM | [9] 30.7 µM | [10] 22.1 µM | [11] 31.8 µM | [13] > 100 µM | [14] 10.8 µM | [15] 48.8 µM | [18] 82.4 µM | [16] 15.3 µM | [17] 16.6 µM

COc1ccc2c(=O)cc(-c3ccncc3)oc2c1OC
inactive: [1] 27.9 µM | [2] 36.1 µM | [3] 24.7 µM | [4] 25.3 µM | [5] 24.2 µM | [6] 31.8 µM | [7] 7.57 µM | [8] 30.4 µM | [9] 24.6 µM | [10] 34 µM | [11] 46.1 µM | [12] 24.6 µM | [13] 23.8 µM | [14] 32.2 µM | [15] 24.9 µM | [18] 20.9 µM | [17] 14 µM

OC1CN=C2c3ccccc3C(O)(c3ccc(Cl)cc3)N2C1 (stereo unspecified)
inactive: [1] 55 µM | [2] > 100 µM | [3] > 100 µM | [4] 17.1 µM | [5] 35.6 µM | [6] 57.8 µM | [7] 31 µM | [8] 31.7 µM | [9] 26.2 µM | [10] > 100 µM | [11] > 100 µM | [12] 27 µM | [13] 41.9 µM | [14] 50.7 µM | [15] 50 µM | [16] 32.2 µM | [17] 45.4 µM

CN=C(n1ccnc1)n1ccnc1
inactive: [1] > 100 µM | [2] > 100 µM | [3] > 100 µM | [4] > 100 µM | [5] > 100 µM | [6] > 100 µM | [7] > 100 µM | [8] > 100 µM | [9] > 100 µM | [10] > 100 µM | [11] > 100 µM | [12] > 100 µM | [13] > 100 µM | [14] > 100 µM | [15] > 100 µM | [16] > 100 µM | [17] > 100 µM

CCCn1cnc2c(SCC(=O)O)nc(N)nc21
inactive: [1] > 100 µM | [2] > 100 µM | [3] > 100 µM | [4] > 100 µM | [5] > 100 µM | [6] > 100 µM | [8] > 100 µM | [9] > 100 µM | [10] > 100 µM | [11] > 100 µM | [12] > 100 µM | [13] > 100 µM | [14] > 100 µM | [15] > 100 µM | [18] > 100 µM | [17] > 100 µM

CC(=O)OCC1OC(Nc2ccc3nc(C)n(-c4ccccc4)c(=O)c3c2)C(OC(C)=O)C(OC(C)=O)C1OC(C)=O (stereo unspecified)
inactive: [1] > 50 µM | [2] > 50 µM | [3] > 50 µM | [4] > 50 µM | [5] > 50 µM | [6] > 50 µM | [7] > 50 µM | [8] > 50 µM | [9] > 50 µM | [10] > 50 µM | [11] > 50 µM | [12] > 50 µM | [13] > 50 µM | [14] 5.61 µM | [15] > 50 µM | [18] > 50 µM | [17] 41.3 µM

COc1ccc2c(c1)N=C(N)n1c(nc3ccccc31)S2
inactive: [1] 1.95 µM | [3] 74.8 µM | [4] 48.9 µM | [5] 3.65 µM | [6] 12.7 µM | [7] 5.28 µM | [8] 68.9 µM | [9] 12.2 µM | [10] 19.2 µM | [11] 4.66 µM | [12] 6.34 µM | [13] 7.24 µM | [14] 4.47 µM | [15] 19.5 µM | [18] 38.5 µM | [16] 34.6 µM | [17] 16.3 µM
